Test results published in patent US11214594B2, “Antimicrobial peptide having synergistic antibacterial effect with antibiotics on multidrug resistant bacteria, and use thereof” (priority 2016, dated 2022).
Where two headings read alike, the source gives them in different places. Where a SMILES comes first, the peptide text is derived from it.

How the values were obtained:
MDREC 1229 [1] = type: cell-based, Escherichia coli
Method in brief: (§1)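 Strains in MH medium at 2×10^6 CFU/ml were mixed with peptide diluted stepwise (2:1) from its MIC, then antibiotic dilutions in MH medium were added to give the antibiotic MIC. The reversed set-up, peptide titrated against fixed antibiotic, gave the peptide MIC.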

E. coli = type: cell-based, Escherichia coli; conditions: E. coli
Method in brief: as §1

MDRAB 12035 = assay: MIC of antimicrobial peptide during combined treatment with antibiotic; type: cell-based, Acinetobacter baumannii
Method in brief: as §1

A. baumannii = assay: as above; type: cell-based, Acinetobacter baumannii
Method in brief: as §1

S. epidermidis = assay: microbe, parasite or virus in culture; type: cell-based, Staphylococcus epidermidis
Method in brief: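 Broth microdilution in MH medium: strains diluted to 2×10^6 CFU were mixed with equal volumes of twofold serial peptide dilutions in MH medium. MIC was taken as the lowest peptide concentration preventing bacterial growth.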

MDREC 1229 [2] = assay: MIC of antibiotic during combined treatment with antimicrobial peptide; type: cell-based, Escherichia coli
Method in brief: as §1

[3] = with Erythromycin […] (Conc./MIC 1)
[4] = erythromycin 4 μg/ml (Conc./MIC 1/8)
[5] = erythromycin 8 μg/ml (Conc./MIC 1/4)
[6] = erythromycin 16 μg/ml (Conc./MIC 1/2)
[7] = erythromycin 32 μg/ml (Conc./MIC 1)
[8] = vancomycin 512 μg/ml (Conc./MIC 1/2)
[9] = vancomycin 1024 μg/ml (Conc./MIC 1)
[10] = peptide treatment concentration 1 μg/ml
[11] = peptide treatment concentration 2 μg/ml
[12] = peptide treatment concentration 4 μg/ml
[13] = peptide treatment concentration 6 μg/ml
[14] = peptide treatment concentration 8 μg/ml
[15] = peptide treatment concentration 16 μg/ml
[16] = peptide treatment concentration 32 μg/ml
[17] = peptide treatment concentration 64 μg/ml

CC[C@H](C)[C@H](NC(=O)[C@H](CCCCN)NC(=O)[C@H](Cc1c[nH]c2ccccc12)NC(=O)[C@@H](N)CCCNC(=N)N)C(=O)N[C@@H](Cc1ccccc1)C(=O)N[C@@H](CCCCN)C(=O)N[C@@H](CCCCN)C(=O)N[C@H](C(=O)N1CCC[C@H]1C(=O)N[C@@H](CCCCN)C(=O)N[C@@H](Cc1ccccc1)C(=O)N[C@@H](CC(C)C)C(=O)N[C@@H](Cc1c[nH]cn1)C(=O)N[C@@H](CO)C(=O)N[C@@H](Cc1c[nH]c2ccccc12)C(=O)N[C@@H](CCCCN)C(=O)N[C@@H](CCCCN)C(=O)N[C@@H](Cc1c[nH]c2ccccc12)C(N)=O)[C@@H](C)CC [PapMA-4, RWK IFK KIP KFL HSW KKW-NH2] (H-RWKIFKKIPKFLHSWKKW-NH2; N-terminus assumed)
32 µg/mL: Antibiotic MIC, Erythromycin (MDREC 1229 [2]; [11]) | Antibiotic MIC, Vancomycin (MDREC 1229 [2]; [15])
64 µg/mL: Antibiotic MIC, Erythromycin (MDREC 1229 [2]; [10]) | Antibiotic MIC, Linezolid (MDREC 1229 [2]; [11]) | Antibiotic MIC, Linezolid (MDREC 1229 [2]; [12]) | Antibiotic MIC, Linezolid (MDREC 1229 [2]; [13])
0 µg/mL: Peptide MIC (MDREC 1229 [1]; [3]) | Peptide MIC (MDREC 1229 [1]; with Linezolid 512 μg/ml (Conc./MIC 1)) | Peptide MIC (E. coli; [3]) | Peptide MIC (E. coli; with Linezolid […] (Conc./MIC 1)) | Peptide MIC (E. coli; with Vancomycin 1024 μg/ml (Conc./MIC 1)) | Peptide MIC during treatment with erythromycin (MDRAB 12035; [7]) | Peptide MIC during treatment with linezolid (MDRAB 12035; linezolid 512 μg/ml (Conc./MIC 1)) | Peptide MIC during treatment with antibiotic (A. baumannii; [7]) | Peptide MIC during treatment with antibiotic (A. baumannii; linezolid […] (Conc./MIC 1)) | Peptide MIC during treatment with antibiotic (A. baumannii; [9]) | Antibiotic MIC, Erythromycin (MDREC 1229 [2]; [16]) | Antibiotic MIC, Linezolid (MDREC 1229 [2]; [16]) | Antibiotic MIC, Vancomycin (MDREC 1229 [2]; [16]) | Antibiotic MIC, Erythromycin (MDREC 1229 [2]; [17]) | Antibiotic MIC, Linezolid (MDREC 1229 [2]; [17]) | Antibiotic MIC, Vancomycin (MDREC 1229 [2]; [17])
128 µg/mL: Antibiotic MIC, Vancomycin (MDREC 1229 [2]; [14])
4 µg/mL: Peptide MIC during treatment with erythromycin (MDRAB 12035; [4]) | Peptide MIC during treatment with erythromycin (MDRAB 12035; [5]) | Peptide MIC during treatment with linezolid (MDRAB 12035; linezolid 64 μg/ml (Conc./MIC 1/8)) | Peptide MIC during treatment with vancomycin (MDRAB 12035; vancomycin […] (Conc./MIC 1/8)) | Peptide MIC during treatment with antibiotic (A. baumannii; [5]) | Peptide MIC during treatment with antibiotic (A. baumannii; linezolid 32 μg/ml (Conc./MIC 1/8)) | Peptide MIC during treatment with antibiotic (A. baumannii; linezolid 64 μg/ml (Conc./MIC 1/4)) | Antibiotic MIC, Erythromycin (MDREC 1229 [2]; [14]) | Antibiotic MIC, Linezolid (MDREC 1229 [2]; [15])
0.25 µg/mL: Peptide MIC during treatment with vancomycin (MDRAB 12035; [9]) | Peptide MIC during treatment with antibiotic (A. baumannii; [8]) | Peptide MIC during treatment with antibiotic (A. baumannii; vancomycin […] (Conc./MIC 1/4)) | Antibiotic MIC, Erythromycin (MDREC 1229 [2]; [15])
1 µg/mL: Peptide MIC during treatment with linezolid (MDRAB 12035; linezolid […] (Conc./MIC 1/2)) | Peptide MIC during treatment with antibiotic (A. baumannii; linezolid […] (Conc./MIC 1/2))
>128 µg/mL: Minimal inhibitory concentration MIC (S. epidermidis) | Antibiotic MIC, Linezolid (MDREC 1229 [2]; [10]) | Antibiotic MIC, Vancomycin (MDREC 1229 [2]; [10]) | Antibiotic MIC, Vancomycin (MDREC 1229 [2]; [11]) | Antibiotic MIC, Vancomycin (MDREC 1229 [2]; [12]) | Antibiotic MIC, Vancomycin (MDREC 1229 [2]; [13])
8 µg/mL: Peptide MIC during treatment with antibiotic (A. baumannii; [4])
2 µg/mL: Peptide MIC during treatment with erythromycin (MDRAB 12035; [6]) | Peptide MIC during treatment with linezolid (MDRAB 12035; linezolid […] (Conc./MIC 1/4)) | Peptide MIC during treatment with vancomycin (MDRAB 12035; [8]) | Peptide MIC during treatment with vancomycin (MDRAB 12035; vancomycin […] (Conc./MIC 1/4)) | Peptide MIC during treatment with antibiotic (A. baumannii; [6]) | Peptide MIC during treatment with antibiotic (A. baumannii; vancomycin […] (Conc./MIC 1/8))
16 µg/mL: Antibiotic MIC, Erythromycin (MDREC 1229 [2]; [12]) | Antibiotic MIC, Erythromycin (MDREC 1229 [2]; [13]) | Antibiotic MIC, Linezolid (MDREC 1229 [2]; [14])
